Assay results reported in ChEMBL document CHEMBL1133423, “Synthesis, DNA binding, topoisomerases inhibition and cytotoxic properties of 4-arylcarboxamidopyrrolo-2-carboxyanilides” (Bioorg Med Chem Lett, 2000).
pIC50: −log10 of the molar value.

Key:
HL-60 = test: Antiproliferative activity of compound against HL60 leukemia cells; type: functional, cell-based; details: Homo sapiens
Nucleic Acid = test: Binding affinity of compound for calf thymus DNA was determined; type: nucleic-acid assay; details: Bos taurus

Cn1cc(NC(=O)c2ccc(CN)cc2)cc1C(=O)Nc1ccc(CN)cc1
pIC50 (HL-60): 5.27
Ka (Nucleic Acid): 680000 M⁻¹

NCc1ccc(NC(=O)c2cc(NC(=O)c3ccc(CN)cc3)cn2Cc2ccccc2)cc1
pIC50 (HL-60): 5.09
Ka (Nucleic Acid): 340000 M⁻¹

NCc1ccc(NC(=O)c2cc(NC(=O)c3ccc(CN)cc3)c[nH]2)cc1
pIC50 (HL-60): 5.77
Ka (Nucleic Acid): 950000 M⁻¹
